Target: T1, CFTR (Homo sapiens, UniProt P13569, DEL508-508)
T1 construct: Primary CF airway epithelial cells were obtained from the UNC Cystic Fibrosis Tissue Procurement and Cell Culture Core; host or cells: primary CF airway epithelial cells, differentiated at the air-liquid interface
Assay: Equivalent current assay in primary CF airway epithelial cells (NAUC, combination with 1st site corrector FDL169 or VX-809)
Assay type: cell-based
Conditions: 37° C., 24 h

[1] = test compound 1 μM in combination with 1st site corrector FDL169 (3 μM)
[2] = test compound 3 μM in combination with 1st site corrector FDL169 (3 μM)
[3] = test compound 10 μM in combination with 1st site corrector FDL169 (3 μM)
[4] = test compound 3 μM in combination with 1st site corrector VX-809 (3 μM)
[5] = test compound 10 μM in combination with 1st site corrector VX-809 (3 μM)

T1 sequence (P13569 with tags, fused parts or gaps DEL508-508): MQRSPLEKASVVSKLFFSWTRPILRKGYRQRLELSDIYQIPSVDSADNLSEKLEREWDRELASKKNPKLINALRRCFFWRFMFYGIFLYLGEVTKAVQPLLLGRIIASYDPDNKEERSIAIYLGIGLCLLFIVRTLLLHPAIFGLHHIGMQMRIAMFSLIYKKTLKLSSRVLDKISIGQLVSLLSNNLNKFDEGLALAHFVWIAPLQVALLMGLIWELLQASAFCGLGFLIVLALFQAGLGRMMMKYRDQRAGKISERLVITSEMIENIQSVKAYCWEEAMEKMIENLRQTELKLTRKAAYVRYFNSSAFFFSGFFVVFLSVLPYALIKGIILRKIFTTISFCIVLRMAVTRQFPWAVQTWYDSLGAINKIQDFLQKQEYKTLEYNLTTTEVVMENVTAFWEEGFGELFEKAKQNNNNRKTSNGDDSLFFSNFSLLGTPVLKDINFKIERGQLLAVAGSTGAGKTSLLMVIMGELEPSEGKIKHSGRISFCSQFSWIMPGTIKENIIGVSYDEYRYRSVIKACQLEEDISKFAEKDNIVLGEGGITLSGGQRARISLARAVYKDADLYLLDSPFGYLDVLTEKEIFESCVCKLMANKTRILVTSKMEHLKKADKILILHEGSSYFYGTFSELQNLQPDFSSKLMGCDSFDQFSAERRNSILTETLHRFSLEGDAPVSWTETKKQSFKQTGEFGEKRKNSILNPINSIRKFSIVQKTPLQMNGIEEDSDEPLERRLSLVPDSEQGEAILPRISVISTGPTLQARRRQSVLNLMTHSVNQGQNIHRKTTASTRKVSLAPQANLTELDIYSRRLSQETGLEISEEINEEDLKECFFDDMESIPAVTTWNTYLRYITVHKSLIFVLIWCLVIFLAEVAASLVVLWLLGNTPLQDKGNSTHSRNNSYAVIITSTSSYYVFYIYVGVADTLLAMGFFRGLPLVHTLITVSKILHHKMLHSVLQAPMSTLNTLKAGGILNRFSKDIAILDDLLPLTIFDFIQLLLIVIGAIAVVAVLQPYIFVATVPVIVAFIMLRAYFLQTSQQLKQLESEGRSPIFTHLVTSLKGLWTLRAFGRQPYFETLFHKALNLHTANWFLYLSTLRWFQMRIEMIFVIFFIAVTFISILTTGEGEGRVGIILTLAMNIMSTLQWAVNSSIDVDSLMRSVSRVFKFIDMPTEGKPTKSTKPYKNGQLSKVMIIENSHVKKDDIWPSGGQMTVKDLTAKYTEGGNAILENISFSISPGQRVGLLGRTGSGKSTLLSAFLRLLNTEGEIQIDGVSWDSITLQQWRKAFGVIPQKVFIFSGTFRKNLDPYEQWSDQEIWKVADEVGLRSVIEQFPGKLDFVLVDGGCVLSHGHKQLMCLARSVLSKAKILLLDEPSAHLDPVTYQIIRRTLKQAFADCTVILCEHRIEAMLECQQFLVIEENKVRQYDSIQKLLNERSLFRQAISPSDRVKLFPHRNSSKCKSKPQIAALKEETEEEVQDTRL

Row | SMILES | Nauc @ 1 μM [1] | Nauc @ 3 μM [2] | Nauc @ 10 μM [3] | Nauc @ 1 μM (test compound 1 μM in combination with 1st site corrector VX-809 (3 μM)) | Nauc @ 3 μM [4] | Nauc @ 10 μM [5]
1 | CC(C)(C)CN(C(=O)[C@H]1[C@H]2CC3(CC3)CN2[C@]2(C(=O)Nc3c(Cl)cc(Cl)cc32)[C@H]1C(=O)O)c1cc(Cl)cc(Cl)c1 (single isomer, unassigned) [Example 275.7a] | +++ (NAUC “+++” refers to an observed NAUC>170% of positive control) | +++ (NAUC “+++” refers to an observed NAUC>170% of positive control) | +++ (NAUC “+++” refers to an observed NAUC>170% of positive control) | – | – | –
2 | CC(C)(C)CN(C(=O)[C@H]1[C@@H](C(=O)O)[C@]2(C(=O)Nc3c(Cl)cc(Cl)cc32)N2CC3(CC3)C[C@@H]12)c1cc(Cl)cc(Cl)c1 (single isomer, unassigned) [Example 275.7b] | +++ (NAUC “+++” refers to an observed NAUC>170% of positive control) | +++ (NAUC “+++” refers to an observed NAUC>170% of positive control) | ++ (NAUC “++” refers to an observed NAUC 170-140% of positive control) | – | – | –
3 | CC(C)(C)c1cccc(C(C)(C)CNC(=O)C2C3CC(F)(F)CN3C3(C(=O)Nc4c(Cl)cc(Cl)cc43)C2C(=O)O)c1 (single isomer, unassigned) [Example 288a, 1′-((2-(3-(tert-butyl)phenyl)-2-methylpropyl)carbamoyl)-5,7-dichloro-6′,6′-difluoro-2-oxo-1′,2′,5′,6′,7′,7a′-hexahydrospiro[indoline-3,3′-pyrrolizine]-2′-carboxylic acid] | – | – | – | +++ (NAUC “+++” refers to an observed NAUC>170% of positive control) | +++ (NAUC “+++” refers to an observed NAUC>170% of positive control) | +++ (NAUC “+++” refers to an observed NAUC>170% of positive control)
4 | O=C(Nc1cc(C(F)(F)F)cc(C(F)(F)F)n1)C1C2CC3(CC3)CN2C2(C(=O)Nc3c(Cl)cc(Cl)cc32)C1C(=O)O (stereo not drawn) [Example 1] | – | – | – | – | +++ (NAUC “+++” refers to an observed NAUC>170% of positive control) | +++ (NAUC “+++” refers to an observed NAUC>170% of positive control)
5 | O=C(Nc1cncc(C(F)(F)F)n1)C1C2CC3(CC3)CN2C2(C(=O)Nc3c(Cl)cc(Cl)cc32)C1C(=O)O (stereo not drawn) [Example 2] | – | – | – | – | + (NAUC “+” refers to an observed NAUC <140% of positive control) | ++ (NAUC “++” refers to an observed NAUC 170-140% of positive control)
6 | C[C@]1(O)CC2C(C(=O)Nc3cc(Cl)cc(Cl)c3)C(C(=O)O)C3(C(=O)Nc4c(Cl)cc(Cl)cc43)N2C1 (stereo partly drawn) [Example 3] | – | – | – | – | +++ (NAUC “+++” refers to an observed NAUC>170% of positive control) | +++ (NAUC “+++” refers to an observed NAUC>170% of positive control)
7 | C[C@]1(O)CC2C(C(=O)Nc3cc(Cl)c(OC(F)F)c(Cl)c3)C(C(=O)O)C3(C(=O)Nc4c(Cl)cc(Cl)cc43)N2C1 (stereo partly drawn) [Example 4] | – | – | – | – | +++ (NAUC “+++” refers to an observed NAUC>170% of positive control) | +++ (NAUC “+++” refers to an observed NAUC>170% of positive control)
8 | C[C@]1(O)CC2C(C(=O)Nc3cc(C(F)(F)F)cc(C(F)(F)F)n3)C(C(=O)O)C3(C(=O)Nc4c(Cl)cc(Cl)cc43)N2C1 (stereo partly drawn) [Example 5] | – | – | – | – | +++ (NAUC “+++” refers to an observed NAUC>170% of positive control) | +++ (NAUC “+++” refers to an observed NAUC>170% of positive control)
9 | COc1cc(C(F)(F)F)cc(NC(=O)C2C3C[C@](C)(O)CN3C3(C(=O)Nc4c(Cl)cc(Cl)cc43)C2C(=O)O)n1 (stereo partly drawn) [Example 6] | – | – | – | – | +++ (NAUC “+++” refers to an observed NAUC>170% of positive control) | +++ (NAUC “+++” refers to an observed NAUC>170% of positive control)
10 | O=C(Nc1cc(Cl)cc(Cl)c1)C1C2CC(F)(F)CN2C2(C(=O)Nc3c(Cl)cc(Cl)cc32)C1C(=O)O (stereo not drawn) [Example 7] | – | – | – | – | – | +++ (NAUC “+++” refers to an observed NAUC>170% of positive control)
11 | CC1(C)CC2C(C(=O)Nc3cc(Cl)c(OC(F)F)c(Cl)c3)C(C(=O)O)C3(C(=O)Nc4c(Cl)cc(Cl)cc43)N2C1 (stereo not drawn) [Example 8, 5,7-dichloro-1′-((3,5-dichloro-4-(difluoromethoxy)phenyl)carbamoyl)-6′,6′-dimethyl-2-oxo-1′,2′,5′,6′,7′,7a′-hexahydrospiro[indoline-3,3′-pyrrolizine]-2′-carboxylic acid] | – | – | – | – | +++ (NAUC “+++” refers to an observed NAUC>170% of positive control) | +++ (NAUC “+++” refers to an observed NAUC>170% of positive control)
12 | COc1c(Cl)cc(NC(=O)C2C3CC(F)(F)CN3C3(C(=O)Nc4c(Cl)cc(Cl)cc43)C2C(=O)O)cc1Cl (stereo not drawn) [Example 9] | – | – | – | – | +++ (NAUC “+++” refers to an observed NAUC>170% of positive control) | +++ (NAUC “+++” refers to an observed NAUC>170% of positive control)
13 | O=C(Nc1cc(C(F)(F)F)ccn1)C1C2CCCN2C2(C(=O)Nc3c(Cl)cc(Cl)cc32)C1C(=O)O (stereo not drawn) [Example 10] | – | – | – | – | ++ (NAUC “++” refers to an observed NAUC 170-140% of positive control) | ++ (NAUC “++” refers to an observed NAUC 170-140% of positive control)
14 | O=C(Nc1cc(C(F)(F)F)ccn1)C1C2CC(F)(F)CN2C2(C(=O)Nc3c(Cl)cc(Cl)cc32)C1C(=O)O (stereo not drawn) [Example 11] | – | – | – | – | +++ (NAUC “+++” refers to an observed NAUC>170% of positive control) | ++ (NAUC “++” refers to an observed NAUC 170-140% of positive control)
15 | O=C(Nc1cc(Cl)c(OC(F)F)c(Cl)c1)C1C2CC3(CC3)CN2C2(C(=O)Nc3c(Cl)cc(Cl)cc32)C1C(=O)O (stereo not drawn) [Example 12] | – | – | – | – | +++ (NAUC “+++” refers to an observed NAUC>170% of positive control) | +++ (NAUC “+++” refers to an observed NAUC>170% of positive control)
16 | CC1(C)CC2C(C(=O)Nc3cc(Cl)cc(Cl)c3)C(C(=O)O)C3(C(=O)Nc4c(Cl)cc(Cl)cc43)N2C1 (stereo not drawn) [Example 13] | – | – | – | – | +++ (NAUC “+++” refers to an observed NAUC>170% of positive control) | +++ (NAUC “+++” refers to an observed NAUC>170% of positive control)
17 | COc1c(Cl)cc(NC(=O)C2C3CC(C)(C)CN3C3(C(=O)Nc4c(Cl)cc(Cl)cc43)C2C(=O)O)cc1Cl (stereo not drawn) [Example 14] | – | – | – | – | +++ (NAUC “+++” refers to an observed NAUC>170% of positive control) | +++ (NAUC “+++” refers to an observed NAUC>170% of positive control)
18 | O=C(Nc1cc(Cl)cc(Cl)c1)C1C2CCCN2C2(C(=O)Nc3c(Cl)cc(Cl)cc32)C1C(=O)O (stereo not drawn) [Example 15] | – | – | – | – | +++ (NAUC “+++” refers to an observed NAUC>170% of positive control) | +++ (NAUC “+++” refers to an observed NAUC>170% of positive control)
19 | O=C(Nc1cc(Cl)cc(Cl)c1)C1C2CC3(CC3)CN2C2(C(=O)Nc3c(Cl)cc(Cl)cc32)C1C(=O)O (stereo not drawn) [Example 16] | – | – | – | – | +++ (NAUC “+++” refers to an observed NAUC>170% of positive control) | +++ (NAUC “+++” refers to an observed NAUC>170% of positive control)
20 | O=C(Nc1cncc(C(F)(F)F)n1)C1C2C[C@@](O)(C(F)(F)F)CN2C2(C(=O)Nc3c(Cl)cc(Cl)cc32)C1C(=O)O (stereo partly drawn) [Example 17] | – | – | – | – | +++ (NAUC “+++” refers to an observed NAUC>170% of positive control) | +++ (NAUC “+++” refers to an observed NAUC>170% of positive control)

Source: patent US20230055237A1, “COMPOUNDS AND METHODS FOR THE TREATMENT OF CYSTIC FIBROSIS” (Flatley Discovery Lab, LLC, priority 2019, published 2023)
